Measurements from patent US20150045610A1, “METHOD OF MODIFYING SPERMATOGENESIS, SPERMIOGENESIS AND/OR FERTILITY IN MAMMALS” (Monell Chemical Senses Center, priority 2012, published 2015).
“Also recorded” adds a separate entry of the source.

Test system: sperm
Experiment: sperm motility in vitro
Type: cell-based, mouse
Details: sperm of WT and mutant mice, clofibric acid in media (2 mM elsewhere in the source)
From the text: We observed spermatozoa after clofibrate treatment represent cells that were able to escape the inhibition of clofibric acid, most likely due to very fast clearance and fluctuating levels in rodents. This allows some tubular cells to complete the developmental cycle. Therefore, we measured sperm concentration as an indicator of efficiency of the pharmacological block and to be able to determine the concentration that results in effective sterility. We analyzed testicular morphology, sperm production, sperm motility and sperm function in in vitro fertilization after feeding these animals with the lipid lowering drug clofibrate. We tested an acute inhibition of sperm motility and function in vitro by incubating sperm from the engineered mice (mGus−/−, mT1R3−/−, hmT1R3+) in solutions containing clofibric acid or other T1R3 inhibitors. The concentration used was similar to the one used in human treatment with fibrates (˜0.03 g/kg weight, for 3 weeks). We tested sperm motility and function in vitro of the Gα-gustducin KO mice (missing only the Gα-gustducin gene (mGus−/−)) after blocking T1R3 receptors with the rodent specific inhibitor gurmarin (3 mg/ml).
We evaluated the residual sperm that was produced by the line 7c mice in more detail. […] From all the above results, the combined lack of T1R3 and α-gustducin exerted its effect primarily at the level of developing spermatocytes in testis.

## CC(C)(Oc1ccc(Cl)cc1)C(=O)O [clofibric acid]
  sperm motility: no differences; also recorded: not affected
